Experimental findings from patent US4059622A, “Alkanolamine derivatives” (Imperial Chemical Industries Limited, priority 1970, dated 1977) are described below.

For the first assay, the target named is T1, cardiac β-receptors (Felis catus, UniProt Q9TST6).
T1 construct: bodyweight of isoprenaline into a chloralose-anaesthetised cat; from tissue; host or cells: heart of the living chloralose-anaesthetised cat (in vivo)
T1 sequence (Q9TST6 whole entry): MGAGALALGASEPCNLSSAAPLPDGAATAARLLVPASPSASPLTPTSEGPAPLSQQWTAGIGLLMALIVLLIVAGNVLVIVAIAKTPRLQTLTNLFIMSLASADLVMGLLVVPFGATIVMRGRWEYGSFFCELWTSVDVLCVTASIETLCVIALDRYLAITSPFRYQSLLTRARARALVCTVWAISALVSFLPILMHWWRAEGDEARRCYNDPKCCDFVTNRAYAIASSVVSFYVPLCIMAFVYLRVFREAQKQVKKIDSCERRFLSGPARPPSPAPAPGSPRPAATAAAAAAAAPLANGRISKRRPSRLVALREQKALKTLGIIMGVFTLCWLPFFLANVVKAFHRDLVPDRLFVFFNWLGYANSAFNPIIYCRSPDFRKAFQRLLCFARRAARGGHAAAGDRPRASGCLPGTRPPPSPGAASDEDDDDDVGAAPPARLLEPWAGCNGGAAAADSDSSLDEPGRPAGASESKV
The assay is described as follows: inhibition of the tachycardia produced by injection of 0.2 μg/kg isoprenaline into a chloralose-anaesthetised cat (β-adrenergic blocking activity). Type of assay: in vivo. The conditions noted are these: cat, read-out: ED50, Compound A. How it is done: The comparison of the β-adrenergic blocking activity of compounds of the present invention with those of the said prior specification may be carried out using a test standard in the art, namely the inhibition of the tachycardia produced by the injection of 0.2 μg. per kg. bodyweight of isoprenaline into a chloralose-anaesthetised cat.
For orientation: ED50 means the midpoint of the dose-response relation. `CC(C)NCC(O)COc1ccc(CC(N)=O)cc1` (stereo not shown) [Compound A, R^1 isopropyl, R^2 H, reference compound]: the ED50 amounted to 0.096 mg/kg.

Still in this assay, the particulars now being: inhibition of tachycardia by 0.2 μg/kg isoprenaline, chloralose-anaesthetised cat; per kg bodyweight; read-out: 50% inhibitory dose (ED50), β-adrenergic blocking activity.
For the molecule `CC(C)NCC(O)COc1ccccc1CC(N)=O` (stereo not shown) [1-o-carbamoylmethylphenoxy-3-isopropylaminopropan-2-ol, reference compound], the ED50 stood at 0.481 mg/kg. On the same count and under the same terms, the same measure for `CC(C)NCC(O)COc1ccccc1OCC(N)=O` (stereo not shown) [Compound B, R^1 isopropyl, R^3 H, 1-isopropylamino-3-(o-carbamoylmethoxyphenoxy)propan-2-ol]: 0.058 mg/kg; for `CC(=O)Nc1ccc(OCC(O)CNC(C)C)cc1` (stereo not shown) [practolol, reference compound]: roughly 0.2 mg/kg.

Staying with this assay, now noted: ortho-substituted compounds of the invention; chloralose-anaesthetised cat, isoprenaline 0.2 μg/kg; read-out: ED50, Compound B.
In the case of `CC(C)NCC(O)COc1ccccc1OCC(N)=O` (stereo not shown) [Compound B, R^1 isopropyl, R^3 H, 1-isopropylamino-3-(o-carbamoylmethoxyphenoxy)propan-2-ol], the ED50 turned out to be 0.058 mg/kg. On the same count and under the same terms, the same measure for `C=CCNC(=O)COc1ccccc1OCC(O)CNC(C)C` (stereo not shown) [Compound B, R^1 isopropyl, R^3 allyl, 1-isopropylamino-3-(o-N-allylcarbamoylmethoxyphenoxy)propan-2-ol]: 0.034 mg/kg. Take `CC(C)NCC(O)COc1ccccc1OCC(=O)NC(C)C` (stereo not shown) [Compound B, R^1 isopropyl, R^3 isopropyl, 1-isopropylamino-3-(o-N-isopropylcarbamoylmethoxyphenoxy)propan-2-ol]: the ED50 came out at 0.2 mg/kg. In the case of `CNC(=O)COc1ccccc1OCC(O)CNC(C)C` (stereo not shown) [Compound B, R^1 isopropyl, R^3 methyl, 1-isopropylamino-3-(o-N-methylcarbamoylmethoxyphenoxy)propan-2-ol], the median effective dose (ED50) turned out to be 0.02 mg/kg. Still for that read-out and setting: as for `CCCCNC(=O)COc1ccccc1OCC(O)CNC(C)C` (stereo not shown) [Compound B, R^1 isopropyl, R^3 n-butyl], the figure is 0.143 mg/kg; as for `CC(C)(C)NCC(O)COc1ccccc1OCC(N)=O` (stereo not shown) [Compound B, R^1 t-butyl, R^3 H, 1t-butylamino-3-(o-carbamoylmethoxyphenoxy)propan-2-ol], 0.011 mg/kg.

The assay is the same for the next values; noted with them: other highly active compounds of the invention; chloralose-anaesthetised cat, isoprenaline 0.2 μg/kg; read-out: ED50.
In the case of `CNC(=O)COc1ccccc1OCC(O)CNC(C)(C)CO` (stereo not shown), the median effective dose (ED50) stood at 0.03 mg/kg. Same read-out and setting: as for `CC(C)NCC(O)COc1ccccc1OCC(=O)NCCO` (stereo not drawn) [R^1 isopropyl, R^3 2-hydroxyethyl, 1-o-(N-β-hydroxyethylcarbamoylmethoxy)phenoxy-3-isopropylamino-2-propanol], the figure is 0.009 mg/kg; as for `COCCNC(=O)COc1ccccc1OCC(O)CNC(C)C` (stereo not drawn) [R^1 isopropyl, R^3 2-methoxyethyl, 1-o-(N-β-methoxyethylcarbamoylmethoxy)phenoxy-3-isopropylamino-2-propanol], 0.027 mg/kg; as for `CC(C)NCC(O)COc1ccccc1OCC(=O)NCCCO` (stereo not shown) [R^1 isopropyl, R^3 3-hydroxypropyl, 1-o-(N-γ-hydroxypropylcarbamoylmethoxy)phenoxy-3-isopropylamino-2-propanol], 0.047 mg/kg. In the case of `CCNC(=O)COc1ccccc1OCC(O)CNC(C)C` (stereo not shown) [R^1 isopropyl, R^3 ethyl, 1-isopropylamino-3-(o-N-ethylcarbamoylmethoxyphenoxy)propan-2-ol], the ED50 turned out to be 0.068 mg/kg. On the same count and under the same terms, the same measure for `CC(C)(C)NCC(O)COc1ccccc1OCC(=O)NCCO` (stereo not drawn) [R^1 t-butyl, R^3 2-hydroxyethyl, 1-o-(N-β-hydroxyethylcarbamoylmethoxy)phenoxy-3-t-butylaminopropan-2-ol]: 0.04 mg/kg; for `CC(C)(C)NCC(O)COc1ccccc1OCC(=O)NCCCO` (stereo not shown) [R^1 t-butyl, R^3 3-hydroxypropyl, 1-o-(N-γ-hydroxypropylcarbamoyl-methoxy)phenoxy-3-t-butylamino-2-propanol]: 0.074 mg/kg; for `C=CCNC(=O)COc1ccccc1OCC(O)CNC(C)(C)C` (stereo not shown) [R^1 t-butyl, R^3 allyl, 1-t-butylamino-3-(o-N-allylcarbamoylmethoxyphenoxy)propan-2-ol]: 0.027 mg/kg.

For `CCNC(=O)COc1ccccc1OCC(O)CNC(C)(C)C` (stereo not shown) [R^1 t-butyl, R^3 ethyl, 1-t-butylamino-3-(o-N-ethylcarbamoylmethoxyphenoxy)propan-2-ol], the ED50 came to 0.018 mg/kg. The same measure, in the same setting: as for `CNC(=O)COc1ccccc1OCC(O)CNC(C)(C)C` (stereo not shown) [R^1 t-butyl, R^3 methyl, 1-t-butylamino-3-(o-N-methylcarbamoylmethoxyphenoxy)propan-2-ol], the figure is 0.014 mg/kg.

The same assay, now with this note: para-substituted prior-art compounds; chloralose-anaesthetised cat, isoprenaline 0.2 μg/kg; read-out: ED50, Compound A.
Turning to `C=CCNC(=O)Cc1ccc(OCC(O)CNC(C)C)cc1` (stereo not shown) [Compound A, R^1 isopropyl, R^2 allyl, reference compound], the ED50 amounted to 1.47 mg/kg. Same read-out and setting: as for `CC(C)NCC(O)COc1ccc(CC(=O)NC(C)C)cc1` (stereo not shown) [Compound A, R^1 isopropyl, R^2 isopropyl, reference compound], the figure is 0.225 mg/kg; as for `CNC(=O)Cc1ccc(OCC(O)CNC(C)C)cc1` (stereo not shown) [Compound A, R^1 isopropyl, R^2 methyl, reference compound], 0.335 mg/kg. For `CCCCNC(=O)Cc1ccc(OCC(O)CNC(C)C)cc1` (stereo not shown) [Compound A, R^1 isopropyl, R^2 n-butyl, reference compound], the ED50 amounted to 0.606 mg/kg. On the same count and under the same terms, the same measure for `CC(C)(C)NCC(O)COc1ccc(CC(N)=O)cc1` (stereo not shown) [Compound A, R^1 t-butyl, R^2 H, reference compound]: 0.136 mg/kg.
